The IC50 is the concentration at which inhibition is half-maximal.

IC50 data for 20 compounds are collected here from US20210300909A1, “IMMUNOMODULATORS, COMPOSITIONS AND METHODS THEREOF” (BETTA PHARMACEUTICALS CO., LTD, priority 2018, published 2021).

The target in the first test is T1, PD-1/PD-L1 protein/protein interaction (Homo sapiens, UniProt Q9NZQ7).
T1 construct: Recombinant human PD-L1 protein (19-238) with a His-tag at the C-terminus; purchased AcroBiosystems PD1-H5229 (PD-L1); PD1-H5257 (PD-1)
T1 sequence (Q9NZQ7 19-238): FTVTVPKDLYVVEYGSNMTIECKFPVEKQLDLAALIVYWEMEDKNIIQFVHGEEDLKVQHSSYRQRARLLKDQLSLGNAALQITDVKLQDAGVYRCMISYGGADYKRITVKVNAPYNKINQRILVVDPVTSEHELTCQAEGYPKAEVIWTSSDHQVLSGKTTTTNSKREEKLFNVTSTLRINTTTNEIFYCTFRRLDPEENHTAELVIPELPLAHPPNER
The test is described as follows: PD-1/PD-L1 homogenous time-resolved fluorescence (HTRF) binding assay.
Settings: not given
As to the method: Resolved Fluorescence (HTRF) Binding Assay
The assays were conducted in a standard black 384-well polystyrene plate with a final volume of 20 μL. Inhibitors were first serially diluted in DMSO and then added to the plate wells before the addition of other reaction components. The final concentration of DMSO in the assay was 1%. The assays were carried out at 25° C. in the PBS buffer (pH 7.4) with 0.05% Tween-20 and 0.1% BSA. […] Plates were centrifuged and proteins were preincubated with inhibitors for 40 min. The incubation was followed by the addition of 10 μL of HTRF detection buffer supplemented with Europium cryptate-labeled anti-human IgG (PerkinElmer-AD0212) specific for Fc and anti-His antibody conjugated to SureLight®-Allophycocyanin (APC, PerkinElmer-AD0059H). After centrifugation, the plate was incubated at 25° C. for 60 min. […] Final concentrations in the assay were […], 10 nM PD-L1, nM europium anti-human IgG and 20 nM anti-His-Allophycocyanin. IC50 determination was performed by fitting the curve of percent control activity versus the log of the inhibitor concentration using the GraphPad Prism 5.0 software.
(In general: TR-FRET usually uses a lanthanide donor and a delayed reading to cut background.)
The compound `COc1cc2oc(-c3cccc(-c4cccc(CCCN5CCOCC5)c4)c3C)nc2cc1CN1CCCCC1C(=O)O` (centres unmarked) [Compound 4, 1-((6-methoxy-2-(2-methyl-3′-(3-morpholinopropyl)-[1,1′-biphenyl]-3-yl)benzo[d]oxazol-5-yl)methyl)piperidine-2-carboxylic acid] displayed an IC50 of less than 25 nM.
In turn, `COc1cc2oc(-c3cccc(-c4cccc(OCCCN5CCOCC5)c4)c3C)nc2cc1CN1CCC(F)(F)CC1C(=O)O` (centres unmarked) [Compound 16, 4,4-difluoro-1-((6-methoxy-2-(2-methyl-3′-(3-morpholinopropoxy)-[1,1′-biphenyl]-3-yl)benzo[d]oxazol-5-yl)methyl)piperidine-2-carboxylic acid] displayed an IC50 of 25 to 150 nM.
The compound `Cc1c(-c2ccccc2)cccc1-c1nc2cc(CN3CCCCC3C(=O)O)c(OC(C)C)cc2o1` (centres unmarked) [Compound 24, 1-((6-isopropoxy-2-(2-methyl-[1,1′-biphenyl]-3-yl)benzo[d]oxazol-5-yl)methyl)piperidine-2-carboxylic acid] returned an IC50 of less than 25 nM.
`COc1cc2oc(-c3cccc(-c4cccc(NC(=O)CCN5CCOCC5)c4)c3C)nc2cc1CN1CCOCC1C(=O)O` (centres unmarked) [Compound 17, 4-((6-methoxy-2-(2-methyl-3′-(3-morpholinopropanamido)-[1,1′-biphenyl]-3-yl)benzo[d]oxazol-5-yl)methyl)morpholine-3-carboxylic acid] yielded a 50% inhibitory concentration (IC50) of less than 25 nM.
Still for that read-out and setting: the value for `COc1cc2c(cc1CN1CCC(F)(F)CC1C(=O)O)nc(-c1cccc(-c3cccc(OCCCN4CCOCC4)c3)c1C)n2C` (centres unmarked) [Compound 15, 4,4-difluoro-1-((6-methoxy-1-methyl-2-(2-methyl-3′-(3-morpholinopropoxy)-[1,1′-biphenyl]-3-yl)-1H-benzo[d]imidazol-5-yl)methyl)piperidine-2-carboxylic acid] was 25 to 150 nM; that for `COc1cc2nc(-c3cccc(-c4cccc(OCCCN5CCOCC5)c4)c3C)sc2cc1CN1CCCC1C(=O)O` (centres unmarked) [Compound 26, ((5-methoxy-2-(2-methyl-3′-(3-morpholinopropoxy)-[1,1′-biphenyl]-3-yl)benzo[d]thiazol-6-yl)methyl)proline] was less than 25 nM.
Same read-out and setting: the value for `COc1cc2c(cc1CN1CCOCC1C(=O)O)nc(-c1cccc(-c3cccc(OCCCN4CCOCC4)c3)c1C)n2C` (centres unmarked) [Compound 14, 4-((6-methoxy-1-methyl-2-(2-methyl-3′-(3-morpholinopropoxy)-[1,1′-biphenyl]-3-yl)-1H-benzo[d]imidazol-5-yl)methyl)morpholine-3-carboxylic acid] was less than 25 nM; that for `COc1cc2oc(-c3cccc(-c4cccc(OCCCN5CCOCC5)c4)c3C)nc2cc1CN1CCCC1C(=O)O` (centres unmarked) [Compound 20, ((6-methoxy-2-(2-methyl-3′-(3-morpholinopropoxy)-[1,1′-biphenyl]-3-yl)benzo[d]oxazol-5-yl)methyl)proline] was less than 25 nM; that for `COc1cc2oc(-c3cccc(-c4cccc(OCCCN(C)CCCCO)c4C)c3C)nc2cc1CN1CCCCC1C(=O)O` (centres unmarked) [Compound 29, 1-((2-(3′-(3-((4-hydroxybutyl)(methyl)amino)propoxy)-2,2′-dimethyl-[1,1′-biphenyl]-3-yl)-6-methoxybenzo[d]oxazol-5-yl)methyl)piperidine-2-carboxylic acid] was less than 25 nM.
`CCCNC(=O)NCCN(C)CCCOc1cccc(-c2cccc(-c3nc4cc(CN5CCCCC5C(=O)O)c(OC)cc4o3)c2C)c1C` (centres unmarked) [Compound 32, 1-((2-(2,2′-dimethyl-3′-(3-(methyl(2-(3-propylureido)ethyl)amino)propoxy)-[1,1′-biphenyl]-3-yl)-6-methoxybenzo[d]oxazol-5-yl)methyl)piperidine-2-carboxylic acid] came in with a concentration for half-maximal inhibition (IC50) of less than 25 nM.
In turn, `COc1cc2oc(-c3cccc(-c4cccc(OCCCN5CCOCC5)c4)c3C)nc2cc1CNC(C)(CO)C(=O)O` (centres unmarked) [Compound 21, 3-hydroxy-2-(((6-methoxy-2-(2-methyl-3′-(3-morpholinopropoxy)-[1,1′-biphenyl]-3-yl)benzo[d]oxazol-5-yl)methyl)amino)-2-methylpropanoic acid] had an IC50 of less than 25 nM.
The same measure, in the same setting: the value for `COc1cc2oc(-c3cccc(-c4cccc(CCCCN5CCOCC5)c4)c3C)nc2cc1CN1CCCCC1C(=O)O` (centres unmarked) [Compound 10, 1-((6-methoxy-2-(2-methyl-3′-(4-morpholinobutyl)-[1,1′-biphenyl]-3-yl)benzo[d]oxazol-5-yl)methyl)piperidine-2-carboxylic acid] was 25 to 150 nM; that for `COc1cc2oc(-c3cccc(-c4cccc(OCCCN5CCOCC5)c4C#N)c3C)nc2cc1CN1CCOCC1C(=O)O` (centres unmarked) [Compound 18, 4-((2-(2′-cyano-2-methyl-3′-(3-morpholinopropoxy)-[1,1′-biphenyl]-3-yl)-6-methoxybenzo[d]oxazol-5-yl)methyl)morpholine-3-carboxylic acid] was less than 25 nM.
`COc1cc2oc(-c3cccc(-c4cccc(C/C=C/CN5CCOCC5)c4C)c3C)nc2cc1CN1CCCCC1C(=O)O` (centres unmarked) [Compound 6, (E)-1-((2-(2,2′-dimethyl-3′-(4-morpholinobut-2-en-1-yl)-[1,1′-biphenyl]-3-yl)-6-methoxybenzo[d]oxazol-5-yl)methyl)piperidine-2-carboxylic acid] registered a concentration for half-maximal inhibition (IC50) of less than 25 nM.
`COc1cc2sc(-c3cccc(-c4cccc(OCCCN5CCOCC5)c4)c3C)nc2cc1CN1CCCC1C(=O)O` (centres unmarked) [Compound 25, ((6-methoxy-2-(2-methyl-3′-(3-morpholinopropoxy)-[1,1′-biphenyl]-3-yl)benzo[d]thiazol-5-yl)methyl)proline] had a half-maximal inhibitory concentration (IC50) of less than 25 nM.
The same measure, in the same setting: under `Cc1c(OCCCN2CCOCC2)cccc1-c1cccc(-c2nc3cc(CN(C)CC(=O)O)c(N(C)C)cc3o2)c1C` [Compound 37, N-((2-(2,2′-dimethyl-3′-(3-morpholinopropoxy)-[1,1′-biphenyl]-3-yl)-6-(dimethylamino)benzo[d]oxazol-5-yl)methyl)-N-methylglycine] stands less than 25 nM.

Staying with this test, now noted: HTRF, recombinant human PD-1 (Fc tag) / PD-L1 (His-tag), 25° C., PBS pH 7.4; class symbols; read-out: IC50.
As for `COc1cc2oc(-c3cccc(-c4cccc(OCCCN5CCOCC5)c4)c3C)nc2cc1CN(C)CC(=O)O` [Compound 19, N-((6-methoxy-2-(2-methyl-3′-(3-morpholinopropoxy)-[1,1′-biphenyl]-3-yl)benzo[d]oxazol-5-yl)methyl)-N-methylglycine], the concentration for half-maximal inhibition (IC50) was in the range of 25 to 150 nM.
On to `COc1cc2oc(-c3cccc(-c4cccc(OCCCN5CCOCC5)c4)c3C)nc2cc1CNCCO` [Compound 1, 2-(((6-methoxy-2-(2-methyl-3′-(3-morpholinopropoxy)-[1,1′-biphenyl]-3-yl)benzo[d]oxazol-5-yl)methyl)amino)ethan-1-ol], for which the IC50 was less than 25 nM.
On the same count and under the same terms, under `COc1cc2oc(-c3cccc(-c4cccc5c4CCN5C(=O)CN4CCOCC4)c3C)nc2cc1CN1CCCCC1C(=O)O` (centres unmarked) [Compound 40, 1-((6-methoxy-2-(2-methyl-3-(1-(2-morpholinoacetyl)indolin-4-yl)phenyl)benzo[d]oxazol-5-yl)methyl)piperidine-2-carboxylic acid] stands more than 150 nM; under `COc1cc2oc(-c3cccc(-c4cccc(OCCCN5CCOCC5)c4)c3C)nc2cc1CN(C)C` [Compound 2, 1-(6-methoxy-2-(2-methyl-3′-(3-morpholinopropoxy)-[1,1′-biphenyl]-3-yl)benzo[d]oxazol-5-yl)-N,N-dimethylmethanamine], 25 to 150 nM.
